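Compound exposure: 48 hours, 5 concentrations, 96-well plates. TGI marks complete inhibition of growth.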
Experiments:
Test in all cases: inhibition of tumour cell growth, NCI panel, 48 h
SK-MEL-2 melanoma = system: SK-MEL-2 melanoma
ACHN renal = system: ACHN renal
HT29 colon = system: HT29 colon
MCF7 breast = system: MCF7 breast
786-0 renal = system: 786-0 renal
HOP-92 NSCLC = system: HOP-92 NSCLC
SK-MEL-5 melanoma = system: SK-MEL-5 melanoma
LOX IMVI melanoma = system: LOX IMVI melanoma
COLO 205 colon = system: COLO 205 colon
UACC-62 melanoma = system: UACC-62 melanoma
MDA-N = system: MDA-N

COC1=CC(=O)CC(C)C12Oc1c(Cl)c(OC)cc(OC)c1C2=O (centres undefined)
TGI (SK-MEL-2 melanoma): > 100 µM | TGI (ACHN renal): > 100 µM | TGI (HT29 colon): > 100 µM | TGI (MCF7 breast): > 100 µM | TGI (786-0 renal): > 100 µM | TGI (HOP-92 NSCLC): 98.3 µM | TGI (SK-MEL-5 melanoma): > 100 µM | TGI (LOX IMVI melanoma): > 100 µM | TGI (COLO 205 colon): 64 µM | TGI (UACC-62 melanoma): > 100 µM

Cc1ccc(C2=C(C#N)C(N)OC3=C2COc2ccccc23)cc1 (centres undefined)
TGI (SK-MEL-2 melanoma): > 100 µM | TGI (ACHN renal): > 100 µM | TGI (HT29 colon): > 100 µM | TGI (MCF7 breast): > 100 µM | TGI (HOP-92 NSCLC): > 100 µM | TGI (SK-MEL-5 melanoma): > 100 µM | TGI (LOX IMVI melanoma): > 100 µM | TGI (MDA-N): > 100 µM | TGI (COLO 205 colon): > 100 µM | TGI (UACC-62 melanoma): > 100 µM

COc1ccc(N=NC(=O)NC(CC(C)C)C(N)=O)cc1 (centres undefined)
TGI (SK-MEL-2 melanoma): > 100 µM | TGI (ACHN renal): > 31.6 µM | TGI (HT29 colon): > 100 µM | TGI (MCF7 breast): > 31.6 µM | TGI (786-0 renal): > 31.6 µM | TGI (HOP-92 NSCLC): > 31.6 µM | TGI (SK-MEL-5 melanoma): > 100 µM | TGI (MDA-N): > 31.6 µM | TGI (COLO 205 colon): 24.9 µM | TGI (UACC-62 melanoma): > 100 µM

COC(=O)c1c(O)ccc2[nH]c3c(O)c4ccccc4cc3c12
TGI (SK-MEL-2 melanoma): 55 µM | TGI (ACHN renal): 96.3 µM | TGI (HT29 colon): > 100 µM | TGI (MCF7 breast): 56.2 µM | TGI (786-0 renal): 95.6 µM | TGI (HOP-92 NSCLC): 61.8 µM | TGI (SK-MEL-5 melanoma): > 100 µM | TGI (MDA-N): 65 µM | TGI (COLO 205 colon): 37.3 µM | TGI (UACC-62 melanoma): > 100 µM

S=c1[nH]n2c(CCCCCCCCc3nnc4sc(=S)[nH]n34)nnc2s1
TGI (SK-MEL-2 melanoma): > 100 µM | TGI (ACHN renal): > 100 µM | TGI (HT29 colon): > 100 µM | TGI (MCF7 breast): > 100 µM | TGI (786-0 renal): > 100 µM | TGI (HOP-92 NSCLC): > 100 µM | TGI (MDA-N): > 100 µM | TGI (COLO 205 colon): > 100 µM | TGI (UACC-62 melanoma): > 100 µM

Reference: PubChem BioAssay (NCI)
